Source: patent US20040171544A1, “Trefoil domain-containing polypeptides and uses thereof” (priority 2001, published 2004)
Where no end group is shown, it is not given here.

How the values were obtained:
[1] = system: IEC-6 cells; assay: in vitro IEC-6 wounding/cell migration assay; type: cell-based; conditions: for relative activity (wound repair, IEC-6 cells across the wound border): 0.1-1.0 mg/ml dimer, 19 hours, serum-deprived media with or without hCGP 2 mg/ml
Protocol: Biological activity of recombinant trefoil peptide fragments was measured using an in vitro wound/migration assay as described by Dignass et al. (J. Clin. Invest. 94:376-383 (1994)). Briefly, primary intestinal epithelial, IEC-6 cells (at passage 17) were grown in sterile Dulbecco's Modified Eagle Medium (DMEM) supplemented with 5% FCS (v/v), 5 μg/μl insulin, and 10 mM penicillin/streptomycin/L-glutamine (PSG). Cells were grown to confluence in a humidified chamber at 37° C. and 5% CO2.
Prior to performing biopotency assays, the media was removed, washed 2× with 0.1% FCS/DMEM and serum-starved overnight in 0.1% FCS/DMEM at 37° C. and 5% CO2. Two simulated wounds per well were made by scoring the cells with a razor blade. The cells were then washed once with 0.1%FCS/DMEM. Samples of hITF15-73 and its fragments and isoforms were produced in Pichia pastoris and purified as described above. The TDCP mixture was then added to separate plates at a concentration of 100 μg per milliliter of 0.1% FCS/DMEM per fragment. A positive control using the known mitogen, transforming growth factor-β (TGF-β), was included at 20 ng/mL media and a negative control of just 0.1% FCS/DMEM were incorporated for later analysis. Cells were incubated for 24 hours at 37° C. At 24 hours post incubation, cells were washed with ice-cold PBS and fixed in cold MeOH. Each plate was then assayed for motility by counting the number of cells crossing the wound edge.
Biological activity was tested using the in vitro IEC-6 wounding/cell migration assay describe above with the following modifications. IEC-6 cells were cultured to confluence in 24-well multiwell plates and were wounded once with a pipette to yield a 4-5 mm×1 cm wound in each well. Cells were washed and maintained in serum-deprived media, with or without human colonic glycoprotein (hCGP; 2 mg/ml), in the presence of 0.1-1.0 mg/ml of one of the three recombinant hITF dimers identified above for 19 hours. Bovine serum albumin (0.1-1.0 mg/ml) was added instead of an hITF dimer. Wound repair was determined by counting the number of IEC-6 cells across the wound border using a 100× photomicrograph (inverted Nikon Diaphor TMS, Nikon N6006 camera).

[2] = isoelectric point (pI) of ITF fragments; type: physicochemical
Description: We have observed that production of trefoil peptides in Pichia pastoris leads to post-translational events which include proteolytic cleavage and dipeptide addition. […] Our studies have shown that longer fermentation times results in increased hITF21-72 yields. We also observed that the optimal yield of the ITF21-72 and ITF21-73 occurs at a pH of ˜5; whereas the optimal yield of the […] and […] occurs at pH 6.0-6.5. As the pI of ITF15-73 and ITF21-72 is 5.1 and 6.9 respectively, separation of the two products can be achieved by ion-exchange chromatography.

[3] = stated as well known; cited from earlier work

Molecule | relative activity (wound repair, IEC-6 cells across the wound border) [1] | further results
EA-hITF15-73 homodimer: dimer of EA-hITF15-73, 13547 Da (EAEEYVGLSANQCAVPAKDRVDCGYPHVTPKECNNRGCCFDSRIPGVPWCFKPLQEAECTF; also: homodimer; UniProt Q07654 22-80, looked up, fragment) | 85.3% | –
hITF15-73: recombinant trefoil peptide fragment, amino acid residues 15-73 of human intestinal trefoil factor, produced in Pichia pastoris (EEYVGLSANQCAVPAKDRVDCGYPHVTPKECNNRGCCFDSRIPGVPWCFKPLQEAECTF; UniProt Q07654 22-80, looked up, fragment) | – | increase in IEC-6 cells migrating over the wound edge, compared to BSA control ([1]; 1 mg/ml, 19 hour incubation, versus 1 mg/ml BSA (FIG. 12)): ~3 fold; pI [2]: 5.1
hITF15-73 homodimer: recombinant hITF15-73 dimer, 13146 Da (EEYVGLSANQCAVPAKDRVDCGYPHVTPKECNNRGCCFDSRIPGVPWCFKPLQEAECTF; cysteine pairing not given here; also: homodimer; UniProt Q07654 22-80, looked up, fragment) | 100% | –
hITF15-73/EA-hITF15-73 heterodimer: dimer of hITF15-73 and EA-hITF15-73, 13347 Da (EEYVGLSANQCAVPAKDRVDCGYPHVTPKECNNRGCCFDSRIPGVPWCFKPLQEAECTF; cysteine pairing not given here; also: heterodimer of hITF15-73 and EA-hITF15-73, one chain has N-terminal Glu-Ala extension; UniProt Q07654 22-80, looked up, fragment) | 95.6% | –
hITF: human intestinal trefoil factor (hITF; also known as TFF3) (protein, listed as Homo sapiens) MLGLVLALLSSSSAEEYVGLSANQCAVPAKDRVDCGYPHVTPKECNNRGCCFDSRIPGVPWCFKPLQEAECTF | – | stability at stomach pH [3]: stable
